Source: article PMC6979384, “Characterization of the plant homeodomain (PHD) reader family for their histone tail interactions” (Epigenetics & Chromatin, 2020)

Columns and labels:
Assay in all cases: Histone peptide microarray
Format in all cases: binding, human
Details in all cases: sheet "Array Heatmap"
PHF8 = test system: PHF8
Method in brief: (§1)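 Histone peptide library (293 synthetic peptides, single/combinatorial PTMs) arrayed and probed with 0.5 μM purified GST-PHD domain; optimized protocol; quadruplicate mean and SD reported.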

DIDO1 = test system: DIDO1
Method in brief: as §1

BPTF (PB) = test system: BPTF (PB)
Method in brief: as §1

AIRE (PP) = test system: AIRE (PP)
Method in brief: as §1

TRIM66 (PB) = test system: TRIM66 (PB)
Method in brief: as §1

KDM5A (3) = test system: KDM5A (3)
Method in brief: as §1

KDM5A (1) = test system: KDM5A (1)
Method in brief: as §1

KDM4C (TTP) = test system: KDM4C (TTP)
Method in brief: as §1

PHRF1 (RP) = test system: PHRF1 (RP)
Method in brief: as §1

CHD4 (PPCC) = test system: CHD4 (PPCC)
Method in brief: as §1

ING3 = test system: ING3
Method in brief: as §1

BAZ2B = test system: BAZ2B
Method in brief: as §1

TAF3 = test system: TAF3
Method in brief: as §1

KDM7A = test system: KDM7A
Method in brief: as §1

PHF13 = test system: PHF13
Method in brief: as §1

ING2 = test system: ING2
Method in brief: as §1

CHD5 (PPCC) = test system: CHD5 (PPCC)
Method in brief: as §1

KDM5B (1) = test system: KDM5B (1)
Method in brief: as §1

PHF2 = test system: PHF2
Method in brief: as §1

SP140L = test system: SP140L
Method in brief: as §1

PHF21A = test system: PHF21A
Method in brief: as §1

ING1 = test system: ING1
Method in brief: as §1

DPF2 (PPC2W2) = test system: DPF2 (PPC2W2)
Method in brief: as §1

PHF23 = test system: PHF23
Method in brief: as §1

CHD5 (PCC) = test system: CHD5 (PCC)
Method in brief: as §1

ING5 = test system: ING5
Method in brief: as §1

MORC3 (CW) = test system: MORC3 (CW)
Method in brief: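 Binding read as mean relative signal from 4 replicates; microarray held 293 synthetic histone peptides with single or combinatorial PTMs. Each GST-tagged PHD reader was applied at 0.5 μM using the optimized Petell protocol.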

KDM5B (3) = test system: KDM5B (3)
Method in brief: as §1

MLL5 = test system: MLL5
Method in brief: as §1

ING4 = test system: ING4
Method in brief: as §1

RAG2 = test system: RAG2
Method in brief: as §1

[1] = GST-tagged reader, histone peptide array, total n = 4

## H3K9me2 + K27me1 (1-32): H3 1-20
PHF8; GST-tagged PHF8, arrays performed twice, total replicate number n = 4
  Array Heatmap signal, PHF8: 0.3466
DIDO1; GST-tagged DIDO1, arrays performed twice, total replicate number n = 4
  Array Heatmap signal, DIDO1: 0.7123
BPTF (PB); GST-tagged BPTF (PB), arrays performed twice, total replicate number n = 4
  Array Heatmap signal, BPTF (PB): 0.3305
AIRE (PP); GST-tagged AIRE (PP), arrays performed twice, total replicate number n = 4
  Array Heatmap signal, AIRE (PP): 0.4239
TRIM66 (PB); GST-tagged TRIM66 (PB), arrays performed twice, total replicate number n = 4
  Array Heatmap signal, TRIM66 (PB): 0.6366
KDM5A (3); GST-tagged KDM5A (3), arrays performed twice, total replicate number n = 4
  Array Heatmap signal, KDM5A (3): 0.5076
KDM5A (1); GST-tagged KDM5A (1), arrays performed twice, total replicate number n = 4
  Array Heatmap signal, KDM5A (1): 0.4383
KDM4C (TTP); GST-tagged KDM4C (TTP), arrays performed twice, total replicate number n = 4
  Array Heatmap signal, KDM4C (TTP): 0.4309
PHRF1 (RP); GST-tagged PHRF1 (RP), arrays performed twice, total replicate number n = 4
  Array Heatmap signal, PHRF1 (RP): 0.767
CHD4 (PPCC); GST-tagged CHD4 (PPCC), arrays performed twice, total replicate number n = 4
  Array Heatmap signal, CHD4 (PPCC): 0.5346
ING3; GST-tagged ING3, arrays performed twice, total replicate number n = 4
  Array Heatmap signal, ING3: 0.4513
BAZ2B; GST-tagged BAZ2B, arrays performed twice, total replicate number n = 4
  Array Heatmap signal, BAZ2B: 0.4338
TAF3; GST-tagged TAF3, arrays performed twice, total replicate number n = 4
  Array Heatmap signal, TAF3: 0.256
KDM7A; GST-tagged KDM7A, arrays performed twice, total replicate number n = 4
  Array Heatmap signal, KDM7A: 0.3071
PHF13; GST-tagged PHF13, arrays performed twice, total replicate number n = 4
  Array Heatmap signal, PHF13: 0.5951
ING2; GST-tagged ING2, arrays performed twice, total replicate number n = 4
  Array Heatmap signal, ING2: 0.6071
CHD5 (PPCC); GST-tagged CHD5 (PPCC), arrays performed twice, total replicate number n = 4
  Array Heatmap signal, CHD5 (PPCC): 0.5173
KDM5B (1); GST-tagged KDM5B (1), arrays performed twice, total replicate number n = 4
  Array Heatmap signal, KDM5B (1): 0.6244
PHF2; GST-tagged PHF2, arrays performed twice, total replicate number n = 4
  Array Heatmap signal, PHF2: 0.587
SP140L; GST-tagged SP140L, arrays performed twice, total replicate number n = 4
  Array Heatmap signal, SP140L: 0.3321
PHF21A; GST-tagged PHF21A, arrays performed twice, total replicate number n = 4
  Array Heatmap signal, PHF21A: 0.4343
ING1; GST-tagged ING1, arrays performed twice, total replicate number n = 4
  Array Heatmap signal, ING1: 0.5289
DPF2 (PPC2W2); GST-tagged DPF2 (PPC2W2), arrays performed twice, total replicate number n = 4
  Array Heatmap signal, DPF2 (PPC2W2): 0.7331
PHF23; GST-tagged PHF23, arrays performed twice, total replicate number n = 4
  Array Heatmap signal, PHF23: 0.5468
CHD5 (PCC); GST-tagged CHD5 (PCC), arrays performed twice, total replicate number n = 4
  Array Heatmap signal, CHD5 (PCC): 0.7436
ING5; GST-tagged ING5, arrays performed twice, total replicate number n = 4
  Array Heatmap signal, ING5: 0.3315
MORC3 (CW); GST-tagged MORC3 (CW), arrays performed twice, total replicate number n = 4
  Array Heatmap signal, MORC3 (CW): 0.4746
KDM5B (3); GST-tagged KDM5B (3), arrays performed twice, total replicate number n = 4
  Array Heatmap signal, KDM5B (3): 0.4925
MLL5; GST-tagged MLL5, arrays performed twice, total replicate number n = 4
  Array Heatmap signal, MLL5: 0.5528
ING4; GST-tagged ING4, arrays performed twice, total replicate number n = 4
  Array Heatmap signal, ING4: 0.4312
RAG2; GST-tagged RAG2, arrays performed twice, total replicate number n = 4
  Array Heatmap signal, RAG2: 0.2412

## H3K9me2 + K27me2: H3 6-30
PHF8; [1]
  Array Heatmap signal, PHF8: 0.3721
DIDO1; [1]
  Array Heatmap signal, DIDO1: 0.6649
BPTF (PB); [1]
  Array Heatmap signal, BPTF (PB): 0.3713
AIRE (PP); [1]
  Array Heatmap signal, AIRE (PP): 0.5158
TRIM66 (PB); [1]
  Array Heatmap signal, TRIM66 (PB): 0.6036
KDM5A (3); [1]
  Array Heatmap signal, KDM5A (3): 0.4645
KDM5A (1); [1]
  Array Heatmap signal, KDM5A (1): 0.5009
KDM4C (TTP); [1]
  Array Heatmap signal, KDM4C (TTP): 0.5461
PHRF1 (RP); [1]
  Array Heatmap signal, PHRF1 (RP): 0.4454
CHD4 (PPCC); [1]
  Array Heatmap signal, CHD4 (PPCC): 0.615
ING3; [1]
  Array Heatmap signal, ING3: 0.521
BAZ2B; [1]
  Array Heatmap signal, BAZ2B: 0.4949
TAF3; [1]
  Array Heatmap signal, TAF3: 0.2757
KDM7A; [1]
  Array Heatmap signal, KDM7A: 0.3867
PHF13; [1]
  Array Heatmap signal, PHF13: 0.655
ING2; [1]
  Array Heatmap signal, ING2: 0.6067
CHD5 (PPCC); [1]
  Array Heatmap signal, CHD5 (PPCC): 0.6064
KDM5B (1); [1]
  Array Heatmap signal, KDM5B (1): 0.6708
PHF2; [1]
  Array Heatmap signal, PHF2: 0.4856
SP140L; [1]
  Array Heatmap signal, SP140L: 0.3642
PHF21A; [1]
  Array Heatmap signal, PHF21A: 0.4962
ING1; [1]
  Array Heatmap signal, ING1: 0.5223
DPF2 (PPC2W2); [1]
  Array Heatmap signal, DPF2 (PPC2W2): 0.6273
PHF23; [1]
  Array Heatmap signal, PHF23: 0.5491
CHD5 (PCC); [1]
  Array Heatmap signal, CHD5 (PCC): 0.8305
ING5; [1]
  Array Heatmap signal, ING5: 0.3864
MORC3 (CW); [1]
  Array Heatmap signal, MORC3 (CW): 0.385
KDM5B (3); [1]
  Array Heatmap signal, KDM5B (3): 0.4954
MLL5; [1]
  Array Heatmap signal, MLL5: 0.5274
ING4; [1]
  Array Heatmap signal, ING4: 0.4936
RAG2; [1]
  Array Heatmap signal, RAG2: 0.2639

## H3K9pro: H3 1-20 [Peptide H3K9pro]
PHF8; PHF8, each array performed twice, total n = 4
  Array Heatmap value (peptide array signal): 0.3451
DIDO1; DIDO1, each array performed twice, total n = 4
  Array Heatmap value (peptide array signal): 0.6439
BPTF (PB); BPTF (PB), each array performed twice, total n = 4
  Array Heatmap value (peptide array signal): 0.3368
AIRE (PP); AIRE (PP), each array performed twice, total n = 4
  Array Heatmap value (peptide array signal): 0.411
TRIM66 (PB); TRIM66 (PB), each array performed twice, total n = 4
  Array Heatmap value (peptide array signal): 0.5807
KDM5A (3); KDM5A (3), each array performed twice, total n = 4
  Array Heatmap value (peptide array signal): 0.4398
KDM5A (1); KDM5A (1), each array performed twice, total n = 4
  Array Heatmap value (peptide array signal): 0.4409
KDM4C (TTP); KDM4C (TTP), each array performed twice, total n = 4
  Array Heatmap value (peptide array signal): 0.4589
PHRF1 (RP); PHRF1 (RP), each array performed twice, total n = 4
  Array Heatmap value (peptide array signal): 0.5869
CHD4 (PPCC); CHD4 (PPCC), each array performed twice, total n = 4
  Array Heatmap value (peptide array signal): 0.5901
ING3; ING3, each array performed twice, total n = 4
  Array Heatmap value (peptide array signal): 0.4734
BAZ2B; BAZ2B, each array performed twice, total n = 4
  Array Heatmap value (peptide array signal): 0.4231
TAF3; TAF3, each array performed twice, total n = 4
  Array Heatmap value (peptide array signal): 0.2557
KDM7A; KDM7A, each array performed twice, total n = 4
  Array Heatmap value (peptide array signal): 0.3118
PHF13; PHF13, each array performed twice, total n = 4
  Array Heatmap value (peptide array signal): 0.5854
ING2; ING2, each array performed twice, total n = 4
  Array Heatmap value (peptide array signal): 0.6039
CHD5 (PPCC); CHD5 (PPCC), each array performed twice, total n = 4
  Array Heatmap value (peptide array signal): 0.5229
KDM5B (1); KDM5B (1), each array performed twice, total n = 4
  Array Heatmap value (peptide array signal): 0.6726
PHF2; PHF2, each array performed twice, total n = 4
  Array Heatmap value (peptide array signal): 0.4692
SP140L; SP140L, each array performed twice, total n = 4
  Array Heatmap value (peptide array signal): 0.3673
PHF21A; PHF21A, each array performed twice, total n = 4
  Array Heatmap value (peptide array signal): 0.4435
ING1; ING1, each array performed twice, total n = 4
  Array Heatmap value (peptide array signal): 0.5254
DPF2 (PPC2W2); DPF2 (PPC2W2), each array performed twice, total n = 4
  Array Heatmap value (peptide array signal): 0.7007
PHF23; PHF23, each array performed twice, total n = 4
  Array Heatmap value (peptide array signal): 0.5285
CHD5 (PCC); CHD5 (PCC), each array performed twice, total n = 4
  Array Heatmap value (peptide array signal): 0.7611
ING5; ING5, each array performed twice, total n = 4
  Array Heatmap value (peptide array signal): 0.3309
MORC3 (CW); MORC3 (CW), each array performed twice, total n = 4
  Array Heatmap value (peptide array signal): 0.4445
KDM5B (3); KDM5B (3), each array performed twice, total n = 4
  Array Heatmap value (peptide array signal): 0.4382
MLL5; MLL5, each array performed twice, total n = 4
  Array Heatmap value (peptide array signal): 0.5292
ING4; ING4, each array performed twice, total n = 4
  Array Heatmap value (peptide array signal): 0.4451
RAG2; RAG2, each array performed twice, total n = 4
  Array Heatmap value (peptide array signal): 0.2419
